# Like-named read-outs stand apart in the source and are kept apart here.
# What was measured:
# Format in all cases: cell-based, human
# SK-MEL-28 = experiment: NCI one-dose SRB assay (Melanoma); details: for inhibition at 10 µM: Homo sapiens, SK-MEL-28, 10 μM, read-out: Percentage growth inhibition (GI%); for Growth Percent: SK-MEL-28, 1.00E-5 Molar
# Method: (§1) The structures of all the newly prepared pyridine-ureas 8a–n were submitted to the National Cancer Institute (NCI) Developmental Therapeutic Program. Eight compounds 8b, 8d, 8e, 8i, 8j and 8l–n were selected to be examined for their in vitro growth inhibitory activity. The anticancer assays were carried out according to the protocol of the Drug Evaluation Branch, NCI, Bethesda. The selected pyridine-ureas were tested at one dose primary anticancer assay against a panel of approximately 58 cancer lines (concentration 10^−5 M). The tested human cancer cell lines emerged from nine different cancer subtypes: leukemia, colon, melanoma, ovarian, lung, CNS, renal, breast and prostate cancers. The sulforhodamine B (SRB) protein assay was adopted to estimate the cell viability and growth. The results were reported as mean-graph of the percentage growth of the treated cells, and presented as percentage growth inhibition (GI%) caused by the test compounds (Table 2).
# (§2) The anticancer assays were performed in accordance with the protocol of the Drug Evaluation Branch, NCI, Bethesda. A 48 h drug exposure protocol was used and sulforhodamine B (SRB) protein assay was applied to estimate the cell viability and growth, as reported earlier.
# MDA-MB-435 = experiment: NCI one-dose SRB assay (Melanoma); details: for inhibition at 10 µM: Homo sapiens, MDA-MB-435, 10 μM, read-out: Percentage growth inhibition (GI%); for Growth Percent: MDA-MB-435, 1.00E-5 Molar
# Method: as §1, §2
# LOX IMVI = experiment: NCI one-dose SRB assay (Melanoma); details: for Growth Percent: 1.00E-5 Molar; for inhibition at 10 µM: Homo sapiens, read-out: Percentage growth inhibition (GI%)
# Method: as §1, §2
# SK-MEL-5 = experiment: NCI one-dose SRB assay (Melanoma); details: for inhibition at 10 µM: Homo sapiens, SK-MEL-5, 10 μM, read-out: Percentage growth inhibition (GI%); for Growth Percent: SK-MEL-5, 1.00E-5 Molar
# Method: as §1, §2
# M14 = experiment: NCI one-dose SRB assay (Melanoma); details: for inhibition at 10 µM: Homo sapiens, M14, 10 μM, read-out: Percentage growth inhibition (GI%); for Growth Percent: M14, 1.00E-5 Molar
# Method: as §1, §2
# UACC-62 = experiment: NCI one-dose SRB assay (Melanoma); details: for inhibition at 10 µM: Homo sapiens, UACC-62, 10 μM, read-out: Percentage growth inhibition (GI%); for Growth Percent: UACC-62, 1.00E-5 Molar
# Method: as §1, §2
# SK-MEL-2 = experiment: NCI one-dose SRB assay (Melanoma); details: for inhibition at 10 µM: Homo sapiens, SK-MEL-2, 10 μM, read-out: Percentage growth inhibition (GI%); for Growth Percent: SK-MEL-2, 1.00E-5 Molar
# Method: as §1, §2
# UACC-257 = experiment: NCI one-dose SRB assay (Melanoma); details: for inhibition at 10 µM: Homo sapiens, UACC-257, 10 μM, read-out: Percentage growth inhibition (GI%); for Growth Percent: UACC-257, 1.00E-5 Molar
# Method: as §1, §2
# MALME-3M = experiment: NCI one-dose SRB assay (Melanoma); details: for Growth Percent: 1.00E-5 Molar; for inhibition at 10 µM: Homo sapiens, read-out: Percentage growth inhibition (GI%)
# Method: as §1, §2
# [1] = tested on: breast cancer MCF-7 cell line; experiment: In vitro anti-proliferative activity, MTT assay; details: Homo sapiens, MCF-7, MTT
# Method: The in vitro anti-proliferative activity of the newly prepared pyridine-ureas 8a–n was examined against breast cancer MCF-7 cell line. The assay was carried out, as triplicates, utilizing the 3-(4,5-dimethylthiazol-2-yl)-2,5-diphenyltetrazolium bromide (MTT) colorimetric assay as described by T. Mosmann. Doxorubicin and Sorafenib were included in this assay as a reference drug.
# MCF-7 (human breast cancer cell line) and WI-38 (human lung fibroblast cell line), were obtained from American Type Culture Collection (Manassas, VA, USA). The cells were propagated in DMEM and supplemented with 10% heat-inactivated FBS (Hyclone), 10 μg/mL of insulin (Manufacturer, Sigma, St. Louis, MO, USA), and 1% penicillin-streptomycin. MTT assay was utilized to examine the in vitro anti-proliferative activity of the newly prepared ureas following the reported procedures. […] The data presented are the mean of at least three separate experiments.
# NCI/ADR-RES = experiment: NCI one-dose SRB assay (Ovarian Cancer); details: for Growth Percent: 1.00E-5 Molar; for inhibition at 10 µM: Homo sapiens, read-out: Percentage growth inhibition (GI%)
# Method: as §1, §2
# SK-OV-3 = experiment: NCI one-dose SRB assay (Ovarian Cancer); details: for inhibition at 10 µM: Homo sapiens, SK-OV-3, 10 μM, read-out: Percentage growth inhibition (GI%); for Growth Percent: SK-OV-3, 1.00E-5 Molar
# Method: as §1, §2
# OVCAR-3 = experiment: NCI one-dose SRB assay (Ovarian Cancer); details: for inhibition at 10 µM: Homo sapiens, OVCAR-3, 10 μM, read-out: Percentage growth inhibition (GI%); for Growth Percent: OVCAR-3, 1.00E-5 Molar
# Method: as §1, §2
# IGROV1 = experiment: NCI one-dose SRB assay (Ovarian Cancer); details: for inhibition at 10 µM: Homo sapiens, IGROV-1, IGROV1, 10 μM, read-out: Percentage growth inhibition (GI%); for Growth Percent: IGROV1, 1.00E-5 Molar
# Method: as §1, §2
# OVCAR-8 = experiment: NCI one-dose SRB assay (Ovarian Cancer); details: for inhibition at 10 µM: Homo sapiens, OVCAR-8, 10 μM, read-out: Percentage growth inhibition (GI%); for Growth Percent: OVCAR-8, 1.00E-5 Molar
# Method: as §1, §2
# OVCAR-5 = experiment: NCI one-dose SRB assay (Ovarian Cancer); details: for inhibition at 10 µM: Homo sapiens, OVCAR-5, 10 μM, read-out: Percentage growth inhibition (GI%); for Growth Percent: OVCAR-5, 1.00E-5 Molar
# Method: as §1, §2
# OVCAR-4 = experiment: NCI one-dose SRB assay (Ovarian Cancer); details: for inhibition at 10 µM: Homo sapiens, OVCAR-4, 10 μM, read-out: Percentage growth inhibition (GI%); for Growth Percent: OVCAR-4, 1.00E-5 Molar
# Method: as §1, §2
# MDA-MB-468 = experiment: NCI one-dose SRB assay (Breast Cancer); details: for inhibition at 10 µM: Homo sapiens, MDA-MB-468, 10 μM, read-out: Percentage growth inhibition (GI%); for Growth Percent: MDA-MB-468, 1.00E-5 Molar
# Method: as §1, §2
# MCF7 = experiment: NCI one-dose SRB assay (Breast Cancer); details: for inhibition at 10 µM: Homo sapiens, MCF7, 10 μM, read-out: Percentage growth inhibition (GI%); for Growth Percent: MCF7, 1.00E-5 Molar
# Method: as §1, §2
# BT-549 = experiment: NCI one-dose SRB assay (Breast Cancer); details: for Growth Percent: BT-549, 1.00E-5 Molar; for inhibition at 10 µM: Homo sapiens, BT-549, 10 μM, read-out: Percentage growth inhibition (GI%)
# Method: as §1, §2
# HS 578T = experiment: NCI one-dose SRB assay (Breast Cancer); details: for Growth Percent: 1.00E-5 Molar; for inhibition at 10 µM: Homo sapiens, read-out: Percentage growth inhibition (GI%)
# Method: as §1, §2
# T-47D = experiment: NCI one-dose SRB assay (Breast Cancer); details: for Growth Percent: 1.00E-5 Molar; for inhibition at 10 µM: Homo sapiens, T47D, read-out: Percentage growth inhibition (GI%)
# Method: as §1, §2
# MDA-MB-231 = experiment: NCI one-dose SRB assay (Breast Cancer); details: for inhibition at 10 µM: Homo sapiens, MDA-MB-231, 10 μM, read-out: Percentage growth inhibition (GI%); for Growth Percent: MDA-MB-231/ATCC, 1.00E-5 Molar
# Method: as §1, §2
# [2] = MCF7, 48 h, 48 h of incubation, read-out: IC50 48 h
# [3] = MCF7, 72 h, 72 h of incubation, read-out: IC50 72 h
structure (smiles),measurement,setting,value
"COc1cccc(NC(=O)Nc2ccc(-c3ccc(OC)c(OC)c3)nc2C)c1 [Compound 8m, 1-(6-(3,4-Dimethoxyphenyl)-2-methylpyridin-3-yl)-3-(3-methoxyphenyl) Urea]",inhibition at 10 µM,SK-MEL-28,< 10%
same,Growth Percent,SK-MEL-28,99.69%
same,inhibition at 10 µM,MDA-MB-435,< 10%
same,Growth Percent,MDA-MB-435,100.45%
same,Growth Percent,LOX IMVI,92.56%
same,inhibition at 10 µM,LOX IMVI,< 10%
same,inhibition at 10 µM,SK-MEL-5,16%
same,Growth Percent,SK-MEL-5,84.32%
same,inhibition at 10 µM,M14,10%
same,Growth Percent,M14,90.93%
same,inhibition at 10 µM,UACC-62,< 10%
same,Growth Percent,UACC-62,93.89%
same,inhibition at 10 µM,SK-MEL-2,13%
same,Growth Percent,SK-MEL-2,87.95%
same,inhibition at 10 µM,UACC-257,< 10%
same,Growth Percent,UACC-257,97.19%
same,Growth Percent,MALME-3M,92.61%
same,inhibition at 10 µM,MALME-3M,< 10%
same,IC50,[1]; [2],23 ± 1.91 µM
same,IC50,[1]; [3],13.1 ± 1.12 µM
same,Growth Percent,NCI/ADR-RES,92.25%
same,inhibition at 10 µM,NCI/ADR-RES,< 10%
same,inhibition at 10 µM,SK-OV-3,< 10%
same,Growth Percent,SK-OV-3,99.49%
same,inhibition at 10 µM,OVCAR-3,< 10%
same,Growth Percent,OVCAR-3,101.69%
same,inhibition at 10 µM,IGROV1,< 10%
same,Growth Percent,IGROV1,112.08%
same,inhibition at 10 µM,OVCAR-8,< 10%
same,Growth Percent,OVCAR-8,102.37%
same,inhibition at 10 µM,OVCAR-5,< 10%
same,Growth Percent,OVCAR-5,104.54%
same,inhibition at 10 µM,OVCAR-4,< 10%
same,Growth Percent,OVCAR-4,126.33%
same,inhibition at 10 µM,MDA-MB-468,< 10%
same,Growth Percent,MDA-MB-468,99.00%
same,inhibition at 10 µM,MCF7,10%
same,Growth Percent,MCF7,90.01%
same,Growth Percent,BT-549,87.21%
same,inhibition at 10 µM,BT-549,13%
same,Growth Percent,HS 578T,99.31%
same,inhibition at 10 µM,HS 578T,< 10%
same,Growth Percent,T-47D,81.11%
same,inhibition at 10 µM,T-47D,19%
same,inhibition at 10 µM,MDA-MB-231,< 10%
same,Growth Percent,MDA-MB-231,106.37%
"COc1ccc(-c2ccc(NC(=O)Nc3cccc(C(F)(F)F)c3)c(C)n2)cc1 [Compound 8b, 1-(6-(4-Methoxyphenyl)-2-methylpyridin-3-yl)-3-(3-(trifluoromethyl)phenyl) Urea]",inhibition at 10 µM,SK-MEL-28,31%
same,Growth Percent,SK-MEL-28,69.29%
same,inhibition at 10 µM,MDA-MB-435,31%
same,Growth Percent,MDA-MB-435,69.59%
same,Growth Percent,LOX IMVI,47.72%
same,inhibition at 10 µM,LOX IMVI,53%
same,inhibition at 10 µM,SK-MEL-5,59%
same,Growth Percent,SK-MEL-5,41.63%
same,inhibition at 10 µM,M14,63%
same,Growth Percent,M14,37.25%
same,inhibition at 10 µM,UACC-62,37%
same,Growth Percent,UACC-62,63.91%
same,inhibition at 10 µM,SK-MEL-2,25%
same,Growth Percent,SK-MEL-2,75.95%
same,inhibition at 10 µM,UACC-257,39%
same,Growth Percent,UACC-257,61.43%
same,Growth Percent,MALME-3M,90.58%
same,inhibition at 10 µM,MALME-3M,10%
same,IC50,[1]; [2],5.66 ± 0.45 µM
same,IC50,[1]; [3],5.03 ± 0.29 µM
same,Growth Percent,NCI/ADR-RES,53.15%
same,inhibition at 10 µM,NCI/ADR-RES,47%
same,inhibition at 10 µM,SK-OV-3,18%
same,Growth Percent,SK-OV-3,82.08%
same,inhibition at 10 µM,OVCAR-3,59%
same,Growth Percent,OVCAR-3,41.93%
same,inhibition at 10 µM,IGROV1,< 10%
same,Growth Percent,IGROV1,91.33%
same,inhibition at 10 µM,OVCAR-8,39%
same,Growth Percent,OVCAR-8,61.89%
same,inhibition at 10 µM,OVCAR-5,17%
same,Growth Percent,OVCAR-5,83.05%
same,inhibition at 10 µM,OVCAR-4,58%
same,Growth Percent,OVCAR-4,42.94%
same,inhibition at 10 µM,MDA-MB-468,73%
same,Growth Percent,MDA-MB-468,27.53%
same,inhibition at 10 µM,MCF7,59%
same,Growth Percent,MCF7,41.47%
same,Growth Percent,BT-549,66.40%
same,inhibition at 10 µM,BT-549,34%
same,Growth Percent,HS 578T,88.85%
same,inhibition at 10 µM,HS 578T,12%
same,Growth Percent,T-47D,26.51%
same,inhibition at 10 µM,T-47D,74%
same,inhibition at 10 µM,MDA-MB-231,32%
same,Growth Percent,MDA-MB-231,68.55%
